Measured values taken from patent publication US20260138965A1, “CRYSTALLINE FORMS OF A TYK2 INHIBITOR AND USES THEREOF” (Alumis Inc., priority 2022, published 2026).
Converted amounts (≈) assume the structure as drawn.

How the values were obtained:
Format in all cases: physicochemical
[1] = Solubility of crystalline Form 1 in organic solvents; details: organic solvent or mixture
[2] = Solid form chemical and physical stability
[3] = Solubility of crystalline Form 1 in aqueous and biorelevant media

solubility ([1]; in MeOH): < 3000 µg/mL
solubility ([1]; in MeOH/DCM (1/1)): > 43000 µg/mL
solubility ([1]; in THF): < 17000 µg/mL
solubility ([1]; in acetone): < 3000 µg/mL
solubility ([1]; in acetonitrile): < 1000 µg/mL
solubility ([1]; in ethanol): < 1000 µg/mL
solubility ([1]; in ethyl acetate): < 1000 µg/mL
solubility ([1]; in heptane): < 1000 µg/mL
solubility ([1]; in isopropyl alcohol): < 1000 µg/mL
solubility ([1]; in methyl t-butyl ether): < 1000 µg/mL
time chemically and physically stable ([2]; 40° C./75% RH): at least 10 days
time chemically and physically stable ([2]; 60° C.): at least 10 days
solubility ([3]; in FaSSIF): 1 to 2 µg/mL (≈ 2.34 to 4.69 µM)
solubility ([3]; in FeSSIF): 30 to 50 µg/mL (≈ 70.3 to 117 µM)
solubility ([3]; simulated gastric fluid, in SGF): 3970 to 4280 µg/mL (≈ 9310 to 10000 µM)
SMILES: [2H]C([2H])([2H])CC(=O)c1cnc(NC(=O)C2CC2)cc1Nc1cccc(-c2ncn(C([2H])([2H])[2H])n2)c1OC [Form 1, N-(4-((2-methoxy-3-(1-(methyl-d3)-1H-1,2,4-triazol-3-yl)phenyl)amino)-5-(propanoyl-3,3,3-d3)pyridin-2-yl) cyclopropanecarboxamide]
